Measurements as given in patent US20150018546A1, “HETEROCYCLIC COMPOUND HAVING ANTI-HIV ACTIVITY” (TOYAMA CHEMICAL CO., LTD., priority 2012, published 2015).

Test system: HIV-1 (JRCSF)
Assay: Anti-HIV activity in MaRBLE cells infected with HIV-1 (JRCSF), luciferase readout
Format: cell-based
Conditions: Human immunodeficiency virus 1, 168 h; MaRBLE cells (human T lymphocyte-derived HPB-M(a)) infected with HIV-1 (JRCSF); 7 days culture; rate of viral proliferation by luciferase activity; read-out: Anti-HIV activity IC50
Method: This test was conducted with reference to Journal of Clinical Microbiology, 2007, Vol. 45, p. 477-487.
The anti-HIV activity was evaluated using MaRBLE cells in which a luciferase gene to be expressed under the control of HIV-1 LTR and a CCR5 gene, etc. were introduced in human T lymphocyte-derived HPB-M(a).
A fresh medium or each appropriately diluted test compound was dispensed to 96-well plates to prepare drug solution-containing plates.
The MaRBLE cells were suspended in RPMI1640 containing 10% FCS (fetal calf serum) and penicillin/streptomycin and infected with HIV-1 (JRCSF). Then, the cells were inoculated to the drug solution-containing plates (1×10^5 cells/well). The same number of uninfected cells were inoculated as a control group to the drug solution-containing plates.
After culture at 37° C. for 7 days in a 5% CO2 atmosphere, the intracellular luciferase activity was measured using Steady-Glo Luciferase assay system (Promega Corp.).
The rate of viral proliferation was determined according to the following expression:
Rate of viral proliferation(%)=(A/B)×100
A=(Firefly luciferase activity of the compound-supplemented well)−(Firefly luciferase activity of the uninfected cells)
B=(Firefly luciferase activity of the compound-free well)−(Firefly luciferase activity of the uninfected cells)
IC50 of the compound was calculated by a plot with concentration as the logarithm and the rate of viral proliferation as the real part using the FORECAST function (linear regression method) of Microsoft Office Excel 2003.

Row | SMILES | IC50
1 | Cc1ncnc2c1c(NCc1ccccc1OC(F)(F)F)cc(=O)n2O [Example 160, 8-hydroxy-4-methyl-5-((2-(trifluoromethoxy)benzyl)amino)pyrido[2,3-d]pyrimidin-7(8H)-one] | 68 nM
2 | Cc1ncnc2c1c(NC(C)c1ccccn1)cc(=O)n2O (stereo not drawn) [Example 165, 8-hydroxy-4-methyl-5-((1-(pyridin-2-yl)ethyl)amino)pyrido[2,3-d]pyrimidin-7(8H)-one] | 160 nM
3 | Cc1ncnc2c1c(NCc1cccnc1)cc(=O)n2O [Example 106, 8-hydroxy-4-methyl-5-(((pyridin-3-yl)methyl)amino)pyrido[2,3-d]pyrimidin-7(8H)-one] | 80 nM
4 | O=c1cc(NCc2cccnc2)c2cncnc2n1O [Example 18, 8-hydroxy-5-((pyridin-3-ylmethyl)amino)pyrido[2,3-d]pyrimidin-7(8H)-one] | 230 nM
5 | Cc1ncnc2c1c(NCc1ccc(C(F)(F)F)cc1)cc(=O)n2O [Example 148, 8-hydroxy-4-methyl-5-((4-(trifluoromethyl)benzyl)amino)pyrido[2,3-d]pyrimidin-7(8H)-one] | 71 nM
6 | O=c1cc(NCc2ccccn2)c2cncnc2n1O [Example 5, 8-hydroxy-5-(((pyridin-2-yl)methyl)amino)pyrido[2,3-d]pyrimidin-7(8H)-one] | 210 nM
7 | O=c1cc(NC2Cc3ccccc3C2)c2cncnc2n1O [Example 10] | 530 nM
8 | O=c1cc(NCc2ccccc2)c2c(O)ncnc2n1O [Example 115, 5-(benzylamino)-4,8-dihydroxypyrido[2,3-d]pyrimidin-7(8H)-one] | 150 nM
9 | COc1ccccc1CNc1cc(=O)n(O)c2ncnc(C)c12 [Example 33, 8-hydroxy-5-((2-methoxybenzyl)amino)-4-methylpyrido[2,3-d]pyrimidin-7(8H)-one] | 53 nM

The remaining compounds from weak to strong by IC50, led by results:

Row | IC50 | SMILES
10 | 490 nM | Cc1ncnc2c1c(NCc1ccc(NS(=O)(=O)c3ccccc3)cc1)cc(=O)n2O [Example 145, N-(4-(((8-hydroxy-4-methyl-7-oxo-7,8-dihydropyrido[2,3-d]pyrimidin-5-yl)amino)methyl)phenyl)benzenesulfonamide]
11 | 210 nM | Cc1ncnc2c1c(NCc1cccc(CN)c1)cc(=O)n2O [Example 132, 5-((3-(aminomethyl)benzyl)amino)-8-hydroxy-4-methylpyrido[2,3-d]pyrimidin-7(8H)-one]
12 | 170 nM | Cc1ncnc2c1c(NCc1cccc(OC(F)(F)F)c1)cc(=O)n2O [Example 45, 8-hydroxy-4-methyl-5-((3-(trifluoromethoxy)benzyl)amino)pyrido[2,3-d]pyrimidin-7(8H)-one]
13 | 120 nM | Cc1cncc(CNc2cc(=O)n(O)c3ncnc(C)c23)c1 [Example 136, 8-hydroxy-4-methyl-5-(((5-methylpyridin-3-yl)methyl)amino)pyrido[2,3-d]pyrimidin-7(8H)-one]
14 | 86 nM | Cc1ncnc2c1c(NCc1ccccc1F)cc(=O)n2O [Example 36, 5-((2-fluorobenzyl)amino)-8-hydroxy-4-methylpyrido[2,3-d]pyrimidin-7(8H)-one]
15 | 85 nM | Cc1ncnc2c1c(NCc1cccnc1N1CCOCC1)cc(=O)n2O [Example 57, 8-hydroxy-4-methyl-5-(((2-(morpholin-4-yl)pyridin-3-yl)methyl)amino)pyrido[2,3-d]pyrimidin-7(8H)-one]
16 | 62 nM | CCN(CC)c1ccc(CNc2cc(=O)n(O)c3ncnc(C)c23)cc1 [Example 39, 5-((4-(diethylamino)benzyl)amino)-8-hydroxy-4-methylpyrido[2,3-d]pyrimidin-7(8H)-one]
17 | 54 nM | Cc1ncnc2c1c(NCc1cccc(F)c1)cc(=O)n2O [Example 151, 5-((3-fluorobenzyl)amino)-8-hydroxy-4-methylpyrido[2,3-d]pyrimidin-7(8H)-one]
18 | 28 nM | Cc1ncnc2c1c(NCc1ccccc1O)cc(=O)n2O [Example 112, 8-hydroxy-5-((2-hydroxybenzyl)amino)-4-methylpyrido[2,3-d]pyrimidin-7(8H)-one]
